Test results published in publication PMC3385710, “Assessment of 5-HT7 Receptor Agonists Selectivity Using Nociceptive and Thermoregulation Tests in Knockout versus Wild-Type Mice” (Advances in Pharmacological Sciences, 2012).

What was measured:
[1] = test system: wild-type mice; assay: Formalin test in wild-type mice; assay type: in vivo; settings: 15-30 min after formalin, versus vehicle
Excerpt: (§1) Formaldehyde (37 wt.% solution) was purchased from Panreac (Spain) and dissolved in physiological saline. Drugs used for treatments were AS-19 (dimethyl-[5-(1,3,5-tri-methyl-1H-pyrazol-4-yl)-1,2,3,4-tetrahydro-naphthalen-2(S)-yl]-amine), E-55888 (dimethyl-{2-[3-(1,3,5-trimethyl-1H-pyrazol-4-yl)-phenyl]-ethyl}-amine dihydrochloride), and E-57431 (2-(2-(dimethylamino)ethyl)-4-(1,3,5-tri-methyl-1H-pyrazol-4-yl)phenol). AS-19 is a potent selective 5-HT7 receptor agonist commercially available from Tocris Bioscience (UK), whereas E-55888 and E-57431 are 5-HT7 receptor agonists developed by ESTEVE Laboratories (Barcelona, Spain). All three 5-HT7 receptor agonists were synthesized for the purpose of this study at ESTEVE, dissolved in aqueous solutions containing 0.5% (hydroxypropyl) methyl cellulose (Sigma-Aldrich, Spain) and administered in a volume of 5 ml/kg through the subcutaneous (s.c.) route. Doses of drugs (referred to their salt forms) and time of evaluation were selected based on previous studies and on pilot experiments in models used in this study. All treatments were performed under blind conditions in independent groups of mice and behavioral evaluation was done 30 min after drug administration.
(§2) Formalin (20 μL of a 2.5% formalin solution; 0.92% of formaldehyde) was injected into the dorsal surface on the right hind paw, as previously described. […] Mice were placed on a paper surface surrounded by a plexiglas cylinder (20 × 25 cm) and the time spent licking and biting the injected paw was measured using a chronometer. A time course of the licking/biting behaviors was monitored during 45 minutes after formalin injection to evaluate possible differences between genotypes. Drug effects were quantified at 0–5 min (phase I) and 15–30 min (phase II) after formalin injection, two periods of time in which the formalin-induced licking and biting time was high enough to test antinociceptive effects of drugs.

[2] = test system: 5-HT7 receptor knockout mice; assay: Formalin test in 5-HT7 receptor knockout mice; assay type: in vivo; settings: 15-30 min after formalin, versus vehicle
Excerpt: as §1, §2

[3] = test system: wild-type mice; assay: Rectal (body) temperature in wild-type mice; assay type: in vivo; settings: for Effect on body temperature: 30 min after administration
Excerpt: as §1
(§3) The body temperature was recorded using a precision thermometer (YSI 4600) equipped with a flexible probe (YSI 402). This probe was lubricated with vaseline and inserted 2 cm into the rectum. Temperature recordings were made 20 s following insertion of the probe, as previously described.

[4] = test system: 5-HT7 receptor knockout mice; assay: Rectal (body) temperature in 5-HT7 receptor knockout mice; assay type: in vivo; settings: for Effect on body temperature: 30 min after administration
Excerpt: as §1, §3

[5] = molecular target: h5-HT1A; settings: cited from earlier work; for Ki: radioligand binding, read-out: Affinity (Ki (nM)) h5-HT1A; for Affinity ratio versus 5-HT7 receptors (Ki h5-HT1A/Ki 5-HT7): number-fold higher for 5-HT7 than for the tested receptor
[6] = molecular target: r5-HT1B; design: method as in PMID 19118950, PMID 20399562; settings: cited from earlier work; for Ki: radioligand binding, read-out: Affinity (Ki (nM)) r5-HT1B
[7] = test system: h5-HT1D; settings: cited from earlier work; for Affinity ratio versus 5-HT7 receptors (Ki h5-HT1D/Ki 5-HT7): number-fold higher for 5-HT7 than for the tested receptor; for Ki: radioligand binding, read-out: Affinity (Ki (nM)) h5-HT1D
[8] = test system: h5-HT2A; design: method as in PMID 19118950, PMID 20399562; settings: cited from earlier work; for Ki: radioligand binding, read-out: Affinity (Ki (nM)) h5-HT2A
[9] = molecular target: h5-HT2B; design: method as in PMID 19118950, PMID 20399562; settings: radioligand binding; read-out: Affinity (Ki (nM)) h5-HT2B; cited from earlier work
[10] = molecular target: h5-HT2C; design: method as in PMID 19118950, PMID 20399562; settings: radioligand binding; read-out: Affinity (Ki (nM)) h5-HT2C; cited from earlier work
[11] = molecular target: h5-HT3; design: method as in PMID 19118950, PMID 20399562; settings: radioligand binding; read-out: Affinity (Ki (nM)) h5-HT3; cited from earlier work
[12] = molecular target: h5-HT4e; design: method as in PMID 19118950, PMID 20399562; settings: radioligand binding; read-out: Affinity (Ki (nM)) h5-HT4e; cited from earlier work
[13] = molecular target: gp5-HT4; design: method as in PMID 19118950, PMID 20399562; settings: radioligand binding; read-out: Affinity (Ki (nM)) gp5-HT4; cited from earlier work
[14] = molecular target: h5-HT5A; design: method as in PMID 19118950, PMID 20399562; settings: cited from earlier work; for Ki: radioligand binding, read-out: Affinity (Ki (nM)) h5-HT5A
[15] = molecular target: h5-HT6; design: method as in PMID 19118950, PMID 20399562; settings: radioligand binding; read-out: Affinity (Ki (nM)) h5-HT6; cited from earlier work
[16] = molecular target: h5-HT7; design: method as in PMID 19118950, PMID 20399562; settings: radioligand binding; read-out: Affinity (Ki (nM)) h5-HT7; cited from earlier work
[17] = molecular target: h5-HT transporter (SERT); design: method as in PMID 19118950, PMID 20399562; settings: radioligand binding; read-out: Affinity (Ki (nM)) h5-HT transporter (SERT); cited from earlier work
[18] = molecular target: Other receptors; design: method as in PMID 19118950, PMID 20399562; settings: panel of other receptors assayed; read-out: Affinity (Ki (nM)) Other receptors; cited from earlier work
[19] = test system: h5-HT7; design: method as in PMID 19118950, PMID 20399562; settings: HEK-293F/h5-HT7 cells, cited from earlier work; for EC50: read-out: EC50, cAMP formation; for Maximal effect (E max), cAMP formation: relative to that of 5-HT
[20] = test system: dopamine D2 receptor; design: method as in PMID 17649988; settings: cited from earlier work
[21] = test system: 5-HT1B, 5-HT2B, 5-HT2C, and 5-HT5A; design: method as in PMID 20600619; settings: cited from earlier work
[22] = test system: rats; design: method as in PMID 16098671; settings: cited from earlier work
[23] = test system: 5-HT1A; design: method as in PMID 14741267; settings: cited from earlier work
[24] = number-fold higher for 5-HT7 than for the tested receptor

SMILES | Effect on body temperature ([3]; 20 mg/kg s.c.) | Effect on body temperature ([4]; 20 mg/kg s.c.) | Ki [5] | Ki [6] | Ki [7] | Ki [8] | Ki [9] | Ki [10] | Ki [11] | Ki [14] | Ki [15] | Ki [16] | Ki [17] | Ki [18] | EC50 [19] | Maximal effect (E max), cAMP formation [19] | other results
Cc1nn(C)c(C)c1-c1ccc(O)c(CCN(C)C)c1 [E-57431, 2-(2-(dimethylamino)ethyl)-4-(1,3,5-tri-methyl-1H-pyrazol-4-yl)phenol] | significantly reduced | significantly reduced | > 1000 nM | > 1000 nM | 53 nM | 560 nM | > 1000 nM | > 1000 nM | > 1000 nM | > 1000 nM | > 1000 nM | 0.47 nM | > 1000 nM | > 1000 nM | 0.0215 ± 0.001 µM | 94.5 ± 1% | Formalin phase II licking/biting time ([1]; 10 mg/kg s.c.): significant reduction; Formalin phase II licking/biting time significantly reduced ([2]; 10 mg/kg s.c.): not; Effect on body temperature ([3]; 10 mg/kg s.c.): did not significantly change; Body temperature reduction ([3]; 20 mg/kg s.c.): 1.1 °C; Effect on body temperature ([4]; 10 mg/kg s.c.): did not significantly change; Body temperature reduction ([4]; 20 mg/kg s.c.): 2.3 °C; Affinity for 5-HT7 higher than for 5-HT1D [7]: 112.7 fold; Affinity ratio versus 5-HT7 receptors (Ki h5-HT1D/Ki 5-HT7) [7]: 112.7 x; Affinity ratio versus 5-HT7 receptors (Ki h5-HT2A/Ki 5-HT7) [8, 24]: 1191.5 x; Ki [12]: > 1000 nM; Ki [13]: > 1000 nM
N#Cc1ccc(CNC(=O)CCCCCN2CCN(c3ccccc3-c3ccccc3)CC2)cc1 [LP-211] |  |  |  |  |  |  |  |  |  |  |  |  |  |  |  |  | Affinity for 5-HT7 higher than for dopamine D2 receptor [20]: 33 fold; Affinity for 5-HT7 higher than for 5-HT1B, 5-HT2B, 5-HT2C, and 5-HT5A [21]: 5-14 fold
NCCc1c[nH]c2ccc(C(N)=O)cc12 [5-carboxamidotryptamine] |  |  |  |  |  |  |  |  |  |  |  |  |  |  |  |  | Phase II formalin-induced nociceptive behavior ([22]; intraplantar or spinal administration): increased
Cc1nn(C)c(C)c1-c1cccc2c1CC[C@H](N(C)C)C2 [AS-19, dimethyl-[5-(1,3,5-tri-methyl-1H-pyrazol-4-yl)-1,2,3,4-tetrahydro-naphthalen-2(S)-yl]-amine, reference compound] | significantly reduced | significantly reduced | 89.7 nM | 490 nM | 6.6 nM | > 1000 nM | > 1000 nM | > 1000 nM | > 1000 nM | 98.5 nM | > 1000 nM | 0.6 nM | > 1000 nM | > 1000 nM | 0.009 ± 0.001 µM | 77% | Formalin phase II licking/biting time ([1]; 10 mg/kg s.c.): significant reduction; Formalin phase II licking/biting time significantly reduced ([2]; 10 mg/kg s.c.): not; Effect on body temperature ([3]; 10 mg/kg s.c.): did not significantly change; Body temperature reduction ([3]; 20 mg/kg s.c.): 3.8 °C; Effect on body temperature ([4]; 10 mg/kg s.c.): did not significantly change; Body temperature reduction ([4]; 20 mg/kg s.c.): 2.4 °C; Affinity ratio versus 5-HT7 receptors (Ki h5-HT1A/Ki 5-HT7) [5]: 149.5 x; Affinity ratio versus 5-HT7 receptors (Ki r5-HT1B/Ki 5-HT7) [6, 24]: 816.6 x; Affinity for 5-HT7 higher than for 5-HT1D [7]: 11 fold; Affinity ratio versus 5-HT7 receptors (Ki h5-HT1D/Ki 5-HT7) [7]: 11 x; Ki [13]: > 1000 nM; Affinity ratio versus 5-HT7 receptors (Ki h5-HT5A/Ki 5-HT7) [14, 24]: 164.2 x
CC1CCN(CC[C@H]2CCCN2S(=O)(=O)c2cccc(O)c2)CC1 [SB-269970, (R)-3-(2-(2-(4-methylpiperidin-1-yl)-ethyl)pyrrolidine-1-sulfonyl)phenol] |  |  |  |  |  |  |  |  |  |  |  |  |  |  |  |  | Effect on 5-carboxamidotryptamine-induced increase of phase II formalin nociceptive behavior [22]: significantly reversed
Cc1nn(C)c(C)c1-c1cccc(CCN(C)C)c1.Cl.Cl [E-55888, dimethyl-{2-[3-(1,3,5-trimethyl-1H-pyrazol-4-yl)-phenyl]-ethyl}-amine dihydrochloride] | did not significantly change | did not significantly change | 700 nM | > 1000 nM | > 1000 nM | > 1000 nM | > 1000 nM | > 1000 nM | > 1000 nM | > 1000 nM | > 1000 nM | 2.5 nM | > 1000 nM | > 1000 nM | 0.016 ± 0.001 µM | 99 ± 1% | Formalin phase II licking/biting time ([1]; 20 mg/kg s.c.): significant reduction; Formalin phase II licking/biting time significantly reduced ([2]; 20 mg/kg s.c.): not; Affinity for 5-HT7 higher than for 5-HT1A [5]: 280 fold; Affinity ratio versus 5-HT7 receptors (Ki h5-HT1A/Ki 5-HT7) [5]: 280 x; Ki [12]: > 1000 nM
CN(C)CCSc1cccc(-c2ccccc2)n1 [MSD-5a] |  |  |  |  |  |  |  |  |  |  |  |  |  |  |  |  | Affinity for 5-HT7 higher than for 5-HT1A [23]: 28.6 fold
